According to patent US20050164913A1, “Disinfecting composition” (Veckis Industries Ltd., priority 2002, published 2005):

Key:
Type in all cases: cell-based
E. coli (strain 1257) = experiment: Antimicrobial activity of samples: death time of test-microorganism E. coli
[1] = tested on: Staphylococcus aureus (strain 906); experiment: Antimicrobial activity of samples: death time of test-microorganism Staphylococcus aureus
[2] = tested on: Bacillus cereus (strain 96); experiment: Antimicrobial activity of samples: death time of test-microorganism Bacillus cereus; conditions: sample concentration 5.0 %
[3] = statement of the text on Table 1

Row | Molecule | Death time of test-microorganisms (min) E. coli (E. coli (strain 1257); sample concentration 0.1 %) [min] | Death time of test-microorganisms (min) E. coli (E. coli (strain 1257); sample concentration 5.0 %) [min] | Death time of test-microorganisms (min) Staphylococcus aureus ([1]; sample concentration 0.1 %) [min] | Death time of test-microorganisms (min) Staphylococcus aureus ([1]; sample concentration 5.0 %) [min] | Death time of test-microorganisms (min) E. coli (E. coli (strain 1257); sample concentration 0.2 %) [min] | Death time of test-microorganisms (min) E. coli (E. coli (strain 1257); sample concentration 0.5 %) [min] | Antibacterial action in words towards gram negative bacteria (vegetative forms) (E. coli (strain 1257); [3]) | Death time of test-microorganisms (min) Staphylococcus aureus ([1]; sample concentration 0.2 %) [min] | Death time of test-microorganisms (min) Staphylococcus aureus ([1]; sample concentration 0.5 %) [min] | Antibacterial action in words towards gram positive bacteria (vegetative forms) [1, 3] | Death time of test-microorganisms (min) Bacillus cereus [2] [min]
1 | O=C(O)CN(CCN(CC(=O)O)CC(=O)O)CC(=O)O.[Zn] [Ethylenediaminotetraacetate zinc complex] | >30 | >30 | >30 | >30 | – | – | – | – | – | – | –
2 | Monoglycinatecopper chloride complex | >30 | – | >30 | >30 | 30 | 15 | high enough efficacy | >30 | >30 | high enough efficacy | >360
